Here are results for nine molecules from ChEMBL document CHEMBL1139055, “Structure-activity relationships of pentacycloundecylamines at the N-methyl-d-aspartate receptor” (Bioorg Med Chem, 2007).

By IC50 is commonly meant the concentration that inhibits the measured activity by half. Broadly, the Inhibition is the relative decrease from the control value, in per cent.

Test [1] is described as follows: Antagonist activity at NMDA receptor in ICR mouse synaptoneurosome assessed as inhibition of NMDA/Gly-mediated 45-calcium influx. Type of test: functional.
Test [2] is filed under the species Mus musculus. Put plainly: Displacement of [3H]MK-801 from NMDA receptor in ICR mouse synaptoneurosome at 100 uM. For orientation: In a radioligand displacement assay an active substance lowers the binding of a labelled ligand.
Test [3] is filed under the species Mus musculus. Put plainly: Displacement of [3H]TCP from NMDA receptor in ICR mouse synaptoneurosome at 100 uM.
A short description of test [4]: Antagonist activity at NMDA receptor in ICR mouse synaptoneurosome assessed as inhibition of NMDA/Gly-mediated 45-calcium influx at 2 uM relative to control. Type of test: functional.
For test [5], the species on record is Mus musculus. Put plainly: Displacement of [3H]glutamate from NMDA receptor in ICR mouse synaptoneurosome.

Calls of active or inactive are those of the source. The calls are words filed in the database; no cut-off is given here.

For the molecule `C[C@]12N[C@H](Cc3ccccc31)c1ccccc12` [DIZOCILPINE], the 50% inhibitory concentration (IC50) in test [1] worked out at 1.23 µM. Further, the Activity amounted to 73% in test [2] and 65% in test [3].

Regarding `O=[N+]([O-])c1cccc(CNC23OC4C5C6CC(C7C6C4C72)C53)c1` (configuration not stated), in test [1], the IC50 stood at 32.8 µM.

Consider `c1ccc(CNC23OC4C5C6CC(C7C6C4C72)C53)cc1` (configuration not stated), for which the half-maximal inhibitory concentration (IC50) in test [1] amounted to 2.98 µM. Further, the Inhibition in test [4] is reported as 108.9%. In addition, the outcome in test [2] and in test [5] was inactive. In test [3], this molecule displayed an Activity of 20%.

Regarding `OC12CC3C4C5CC6C4C3C1C(NCc1ccccc1)C6C52` (configuration not stated), the IC50 in test [1] worked out at 36.2 µM.

As for `O=[N+]([O-])c1ccccc1CNC12OC3C4C5CC(C6C5C3C61)C42` (configuration not stated), the IC50 in test [1] worked out at 37.6 µM.

For `NC1C2C3CC4C1C1C2CC3C41` (configuration not stated), in test [1], the IC50 worked out at 4.06 µM. Further, the result in test [2], in test [3] and in test [5] was inactive.

For the molecule `COc1cccc(CNC23OC4C5C6CC(C7C6C4C72)C53)c1` (configuration not stated), the 50% inhibitory concentration (IC50) in test [1] was determined as 20.7 µM.

Turning to `CC12CC3CC(C)(C1)CC(N)(C3)C2` [MEMANTINE], the IC50 in test [1] was found to be 3.05 µM. In addition, the Activity is 90% in test [2] and 67% in test [3].

On to `c1ccc(CCNC23OC4C5C6CC(C7C6C4C72)C53)cc1` (configuration not stated), for which the IC50 in test [1] was found to be 23.5 µM. Also, the result in test [2] was inactive. In test [3], the Activity is 44%.
